Assay results reported in patent US7989459B2, “Purinones and 1H-imidazopyridinones as PKC-theta inhibitors” (Pharmacopeia, LLC, priority 2006, dated 2011).

How the values were obtained:
[1] = target: PKCθ (Homo sapiens, UniProt Q04759); assay: Ki Pan Vera (PV) PKCθ; type: biochemical
Description: (§1) For Ki Pan Vera (PV) of PKCθ, entries identified with “A” had values below 100 nM; entries identified with “B” had values below 1 μM.

[2] = target: PKC delta (Homo sapiens, UniProt Q05655); assay: Ki Pan Vera (PV) PKC delta; type: biochemical
Sequence of PKC delta (Q05655 whole entry): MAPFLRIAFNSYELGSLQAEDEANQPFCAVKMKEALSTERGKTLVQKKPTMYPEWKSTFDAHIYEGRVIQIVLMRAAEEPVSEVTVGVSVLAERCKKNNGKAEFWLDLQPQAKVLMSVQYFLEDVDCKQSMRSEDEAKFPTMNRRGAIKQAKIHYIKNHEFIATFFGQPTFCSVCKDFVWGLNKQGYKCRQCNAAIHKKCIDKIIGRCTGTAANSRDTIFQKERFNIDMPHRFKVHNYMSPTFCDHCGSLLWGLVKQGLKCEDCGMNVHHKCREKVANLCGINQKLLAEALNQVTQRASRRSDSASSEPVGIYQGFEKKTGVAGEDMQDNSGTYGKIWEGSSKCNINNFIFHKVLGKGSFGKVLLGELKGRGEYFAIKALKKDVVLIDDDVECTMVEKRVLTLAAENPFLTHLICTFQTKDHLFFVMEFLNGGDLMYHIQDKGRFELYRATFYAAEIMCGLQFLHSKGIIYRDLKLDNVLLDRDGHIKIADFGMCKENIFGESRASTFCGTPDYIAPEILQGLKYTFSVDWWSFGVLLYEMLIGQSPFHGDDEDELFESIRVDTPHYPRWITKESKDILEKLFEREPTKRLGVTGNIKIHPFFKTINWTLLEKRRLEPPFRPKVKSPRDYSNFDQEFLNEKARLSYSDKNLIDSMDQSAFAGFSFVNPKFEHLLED

[3] = target: PKC alpha (Homo sapiens, UniProt P17252); assay: Ki Pan Vera (PV) PKC alpha; type: biochemical
Description: [Worded in the source for another target; this target is reported under the same test.] as §1

[4] = tested on: anti-CD3 induced interleukin-2 (IL-2) production; assay: anti-CD3 induced IL-2 production in mice; type: in vivo
Description: The compounds of the invention were also tested in vivo.

[5] = target: T1, SGK1 (Homo sapiens, UniProt O00141); assay: IC50 for kinase SGK (selectivity); type: biochemical
T1 sequence (O00141 1-431): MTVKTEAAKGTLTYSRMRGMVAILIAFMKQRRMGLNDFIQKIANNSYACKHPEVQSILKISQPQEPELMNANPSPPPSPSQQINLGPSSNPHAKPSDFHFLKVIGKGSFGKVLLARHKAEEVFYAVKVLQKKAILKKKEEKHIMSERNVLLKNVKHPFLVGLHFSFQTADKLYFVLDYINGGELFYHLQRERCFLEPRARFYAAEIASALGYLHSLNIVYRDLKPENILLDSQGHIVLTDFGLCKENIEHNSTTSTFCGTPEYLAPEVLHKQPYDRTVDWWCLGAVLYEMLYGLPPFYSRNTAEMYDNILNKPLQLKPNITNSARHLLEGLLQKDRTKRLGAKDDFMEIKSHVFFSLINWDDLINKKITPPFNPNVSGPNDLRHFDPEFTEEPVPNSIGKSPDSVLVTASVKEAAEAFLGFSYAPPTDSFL
Description: Entries identified with “1” had values above 15 nM; entries identified with “2” had values above 100 nM; entries identified with “3” had values above 1 μM; entries identified with “4” had values above 10 μM. In Table 2, “nd” stands for “not determined.”

Sequence of PKCθ (Q04759 whole entry): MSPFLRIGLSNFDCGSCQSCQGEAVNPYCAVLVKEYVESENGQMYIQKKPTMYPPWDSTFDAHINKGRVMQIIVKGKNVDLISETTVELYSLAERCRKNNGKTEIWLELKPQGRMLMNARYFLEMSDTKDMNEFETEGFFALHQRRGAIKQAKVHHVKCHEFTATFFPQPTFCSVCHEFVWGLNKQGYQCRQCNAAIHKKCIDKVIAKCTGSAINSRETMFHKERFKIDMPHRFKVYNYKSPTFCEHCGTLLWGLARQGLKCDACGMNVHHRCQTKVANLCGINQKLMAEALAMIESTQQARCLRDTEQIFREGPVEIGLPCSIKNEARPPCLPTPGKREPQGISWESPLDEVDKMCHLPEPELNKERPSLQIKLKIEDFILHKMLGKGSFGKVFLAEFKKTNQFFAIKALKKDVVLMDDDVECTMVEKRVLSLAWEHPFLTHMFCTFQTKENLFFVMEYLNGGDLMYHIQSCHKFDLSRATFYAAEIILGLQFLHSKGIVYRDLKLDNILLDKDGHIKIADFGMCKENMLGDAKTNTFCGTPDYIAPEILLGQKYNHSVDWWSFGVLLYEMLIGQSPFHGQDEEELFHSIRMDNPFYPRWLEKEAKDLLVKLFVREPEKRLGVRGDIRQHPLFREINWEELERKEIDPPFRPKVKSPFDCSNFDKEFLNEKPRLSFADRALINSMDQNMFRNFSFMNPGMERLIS

Row | Ki [1] | Ki [2] | Ki [3] | IC50 [5] | IC50-SGK1 (nM) [5] | SMILES | % inhibition of IL-2 production ([4]; subcutaneous dose 30 mg/kg) | % inhibition of IL-2 production ([4]; subcutaneous dose 1 mg/kg)
1 | < 100 nM | > 15 nM | > 1000 nM | – | – | O=c1[nH]c2cnc(NC[C@@H]3CCNC3)nc2n1Cc1c(Cl)cccc1Cl [Compound 101] | 39% | –
2 | < 100 nM | > 15 nM | > 1000 nM | > 1000 nM | – | O=c1[nH]c2cnc(NC[C@H]3CCNC3)nc2n1Cc1ccccc1Cl [Compound 103] | – | –
3 | < 100 nM | > 15 nM | > 1000 nM | > 10000 nM | – | O=c1[nH]c2cnc(NCC3CCNC3)nc2n1Cc1ccccc1Br (centres unmarked) [Compound 104] | – | –
4 | < 100 nM | > 15 nM | > 1000 nM | > 1000 nM | – | O=c1[nH]c2cnc(NCC3CCNC3)nc2n1Cc1cc(F)ccc1C(F)(F)F (centres unmarked) [Compound 105] | – | –
5 | < 100 nM | > 15 nM | > 1000 nM | > 10000 nM | – | O=c1[nH]c2cnc(NCC3CCNC3)nc2n1Cc1c(F)cccc1Cl (centres unmarked) [Compound 106] | – | –
6 | < 100 nM | > 15 nM | > 1000 nM | – | – | O=c1[nH]c2cnc(NC[C@@H]3CCNC3)nc2n1Cc1cccc(Cl)c1Cl [Compound 107] | 45% | –
7 | < 100 nM | > 15 nM | > 1000 nM | > 10000 nM | – | O=c1[nH]c2cnc(NCC3CCNC3)nc2n1Cc1c(Cl)cccc1Cl (centres unmarked) [Compound 108] | – | –
8 | < 100 nM | > 15 nM | > 1000 nM | – | – | O=c1[nH]c2cnc(NCC3CCNC3)nc2n1Cc1ccccc1C(F)(F)F (centres unmarked) [Compound 109] | – | –
9 | < 100 nM | > 100 nM | > 1000 nM | – | Inactive | O=c1[nH]c2cnc(NCC3CCNC3)nc2n1Cc1ccccc1OC(F)(F)F (centres unmarked) [Compound 112] | – | –
10 | < 100 nM | > 15 nM | > 1000 nM | > 10000 nM | – | O=c1[nH]c2cnc(NCC3CCNC3)nc2n1Cc1ccccc1Cl (centres unmarked) [Compound 113] | – | –
11 | < 100 nM | > 100 nM | > 10000 nM | > 10000 nM | – | O=c1[nH]c2cnc(NCC3CCNC3)nc2n1Cc1cccc(Cl)c1Cl (centres unmarked) [Compound 114] | – | –
12 | < 100 nM | > 100 nM | > 1000 nM | > 10000 nM | – | O=c1[nH]c2cnc(NC[C@@H]3CCNC3)nc2n1Cc1ccccc1C(F)(F)F [Compound 116] | – | –
13 | < 100 nM | > 100 nM | > 10000 nM | – | Inactive | NCCCNc1ncc2[nH]c(=O)n(Cc3cccc(Cl)c3Cl)c2n1 [Compound 117] | – | –
14 | < 100 nM | > 100 nM | > 10000 nM | – | Inactive | NCCCNc1ncc2[nH]c(=O)n(Cc3c(F)cccc3Cl)c2n1 [Compound 118] | – | –
15 | < 100 nM | > 100 nM | > 10000 nM | – | Inactive | O=c1[nH]c2cnc(NCC3CCNC3)nc2n1Cc1c(F)cccc1F (centres unmarked) [Compound 119] | – | –
16 | < 100 nM | > 100 nM | > 1000 nM | – | Inactive | O=c1[nH]c2cnc(NC[C@H]3CCNC3)nc2n1Cc1ccccc1C(F)(F)F [Compound 122] | – | –
17 | < 100 nM | > 100 nM | > 10000 nM | > 10000 nM | – | NCCCNc1ncc2[nH]c(=O)n(Cc3ccccc3Cl)c2n1 [Compound 124] | – | –
18 | < 100 nM | > 100 nM | > 10000 nM | > 1000 nM | – | NCCCNc1ncc2[nH]c(=O)n(Cc3ccccc3Br)c2n1 [Compound 127] | – | –
19 | < 1000 nM | > 100 nM | > 10000 nM | > 10000 nM | – | O=c1[nH]c2cnc(NC[C@@H]3CCNC3)nc2n1Cc1ccccc1Cl [Compound 128] | – | –
20 | < 100 nM | > 100 nM | > 10000 nM | – | Inactive | NCCCNc1ncc2[nH]c(=O)n(Cc3c(F)cccc3F)c2n1 [Compound 129] | – | –
21 | < 100 nM | > 100 nM | > 10000 nM | > 1000 nM | – | NCCCNc1ncc2[nH]c(=O)n(Cc3cc(F)ccc3C(F)(F)F)c2n1 [Compound 133] | – | –
22 | < 100 nM | > 100 nM | > 10000 nM | – | Inactive | NCCCNc1ncc2[nH]c(=O)n(Cc3ccccc3C(F)(F)F)c2n1 [Compound 136] | – | –
23 | < 100 nM | > 100 nM | > 10000 nM | > 10000 nM | – | O=c1[nH]c2cnc(NC[C@@H]3CCCNC3)nc2n1Cc1c(Cl)cccc1Cl [Compound 138] | – | –
24 | < 1000 nM | > 1000 nM | > 10000 nM | – | Inactive | NCCCNc1ncc2[nH]c(=O)n(Cc3ccccc3OC(F)(F)F)c2n1 [Compound 139] | – | –

Row | Ki [1] | Ki [2] | Ki [3] | IC50 [5] | IC50-SGK1 (nM) [5] | SMILES | % inhibition of IL-2 production ([4]; subcutaneous dose 30 mg/kg) | % inhibition of IL-2 production ([4]; subcutaneous dose 1 mg/kg)
25 | < 1000 nM | > 100 nM | > 10000 nM | > 10000 nM | – | O=c1[nH]c2cnc(NC[C@H]3CCCNC3)nc2n1Cc1c(Cl)cccc1Cl [Compound 140] | – | –
26 | < 1000 nM | > 100 nM | > 10000 nM | – | Inactive | O=c1[nH]c2cnc(NC[C@H]3CCCNC3)nc2n1Cc1ccccc1Br [Compound 141] | – | –
27 | < 1000 nM | > 100 nM | > 10000 nM | > 10000 nM | – | O=c1[nH]c2cnc(NC[C@H]3CCCNC3)nc2n1Cc1ccccc1C(F)(F)F [Compound 142] | – | –
28 | < 1000 nM | > 100 nM | > 10000 nM | > 10000 nM | – | O=c1[nH]c2cnc(NC[C@@H]3CCCNC3)nc2n1Cc1ccccc1C(F)(F)F [Compound 144] | – | –
29 | < 1000 nM | > 1000 nM | > 10000 nM | – | Inactive | O=c1[nH]c2cnc(NCC3CCNCC3)nc2n1Cc1ccccc1C(F)(F)F [Compound 145] | – | –
30 | < 100 nM | > 15 nM | > 1000 nM | > 10000 nM | – | O=c1[nH]c2ccc(NC[C@@H]3CCNC3)nc2n1Cc1c(Cl)cccc1Cl [Compound 147, (R)-3-(2,6-Dichlorobenzyl)-5-(pyrrolidin-3-ylmethylamino)-1H-imidazo[4,5-b]pyridin-2(3H)-one] | – | –
31 | < 100 nM | > 100 nM | > 10000 nM | – | – | O=c1[nH]c2ccc(NC[C@H]3CCNC3)nc2n1Cc1c(Cl)cccc1Cl [Compound 148] | – | –
32 | < 100 nM | > 100 nM | > 10000 nM | – | Inactive | NCCCNc1ccc2[nH]c(=O)n(Cc3c(Cl)cccc3Cl)c2n1 [Compound 149] | – | –
33 | < 1000 nM | > 100 nM | > 1000 nM | > 10000 nM | – | O=c1[nH]c2cnc(NCC3CCNCC3)nc2n1Cc1ccccc1Br [Compound 201] | – | –
34 | < 1000 nM | > 100 nM | > 10000 nM | – | Inactive | O=c1[nH]c2cnc(NCC3CCCNC3)nc2n1Cc1ccccc1Cl (centres unmarked) [Compound 203] | – | –
35 | < 1000 nM | > 100 nM | > 10000 nM | > 10000 nM | – | O=c1[nH]c2cnc(NCC3CCNC3)nc2n1Cc1ccccc1F (centres unmarked) [Compound 204] | – | –
36 | < 1000 nM | > 100 nM | > 10000 nM | – | Inactive | O=c1[nH]c2cnc(NCC3CCNCC3)nc2n1Cc1c(Cl)cccc1Cl [Compound 205] | – | –
37 | < 1000 nM | > 100 nM | > 10000 nM | – | Inactive | O=c1[nH]c2cnc(NCC3CCNCC3)nc2n1Cc1ccccc1Cl [Compound 206] | – | –
38 | < 1000 nM | > 100 nM | > 10000 nM | – | – | O=c1[nH]c2cnc(NCCCn3ccnc3)nc2n1Cc1c(Cl)cccc1C(F)(F)F [Compound 207] | – | –
39 | < 1000 nM | > 100 nM | > 10000 nM | – | Inactive | NCCCNc1ncc2[nH]c(=O)n(Cc3ccccc3F)c2n1 [Compound 208] | – | –
40 | < 1000 nM | > 1000 nM | > 10000 nM | – | – | NCCCNc1ncc2[nH]c(=O)n(Cc3cccc(Cl)c3)c2n1 [Compound 214] | – | –
41 | < 1000 nM | > 1000 nM | > 10000 nM | – | – | O=c1[nH]c2cnc(NCC3CCNCC3)nc2n1Cc1cccc(Cl)c1 [Compound 215] | – | –
42 | < 1000 nM | > 1000 nM | > 10000 nM | – | – | Cc1ccccc1Cn1c(=O)[nH]c2cnc(NCCCN)nc21 [Compound 216] | – | –
43 | < 1000 nM | > 1000 nM | > 10000 nM | – | – | COc1ccccc1Cn1c(=O)[nH]c2cnc(NCCCN)nc21 [Compound 218] | – | –
44 | < 1000 nM | > 1000 nM | > 1000 nM | – | – | O=c1[nH]c2cnc(NCC3CCNCC3)nc2n1-c1cccc(Cl)c1 [Compound 224] | – | –
45 | < 1000 nM | > 1000 nM | > 10000 nM | – | – | O=c1[nH]c2cnc(NCC3CCNC3)nc2n1[C@@H]1CCc2ccccc21 (some centres unmarked) [Compound 231] | – | –
46 | < 1000 nM | > 100 nM | > 10000 nM | – | Inactive | NCCCNc1ccc2[nH]c(=O)n(Cc3ccccc3Cl)c2n1 [Compound 241] | – | –
47 | – | – | – | – | – | C=CC[C@@H]1/C=C(\C)C[C@H](C)C[C@H](OC)[C@H]2O[C@@](O)(C(=O)C(=O)N3CCCC[C@H]3C(=O)O[C@H](/C(C)=C/[C@@H]3CC[C@@H](O)[C@H](OC)C3)[C@H](C)[C@@H](O)CC1=O)[C@H](C)C[C@@H]2OC [FK506, reference compound] | – | 87%
